Laboratory results published in ChEMBL document CHEMBL1155582, “Bioactive constituents of Thuja occidentalis” (J Nat Prod, 2000).
Activity calls are given as the source filed them. No cut-off for these calls is given here.

Key:
[1] = Inhibition of 12-O-tetradecanoylphorbol 13-acetate-induced transformation of mouse JB6 cells after 14 days by soft agar transformation assay; assay type: functional
JB6 = experiment: (§1) Cytotoxicity against mouse JB6 cells by trypan blue exclusion test; assay type: functional, cell-based
[2] = molecular target: T1, Ornithine decarboxylase (Mus musculus) (UniProt P00860); experiment: Inhibition of 12-O-tetradecanoylphorbol 13-acetate-induced ornithine decarboxylase activity in mouse ME308 cells; assay type: cell-based
T1 sequence (whole entry): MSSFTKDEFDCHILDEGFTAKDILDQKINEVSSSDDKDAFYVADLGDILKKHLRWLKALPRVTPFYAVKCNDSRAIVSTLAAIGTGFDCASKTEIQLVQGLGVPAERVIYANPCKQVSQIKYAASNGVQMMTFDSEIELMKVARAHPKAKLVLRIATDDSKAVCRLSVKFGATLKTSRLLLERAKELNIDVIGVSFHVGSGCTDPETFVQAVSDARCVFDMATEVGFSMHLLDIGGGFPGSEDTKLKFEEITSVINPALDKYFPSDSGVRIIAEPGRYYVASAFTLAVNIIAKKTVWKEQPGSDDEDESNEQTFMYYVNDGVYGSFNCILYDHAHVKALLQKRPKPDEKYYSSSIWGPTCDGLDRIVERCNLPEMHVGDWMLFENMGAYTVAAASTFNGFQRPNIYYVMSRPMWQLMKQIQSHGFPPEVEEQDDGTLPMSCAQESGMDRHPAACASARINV

KB = experiment: Cytotoxicity against human KB cells; assay type: functional, cell-based
[3] = as §1; assay type: functional, cell-based

| Structure (SMILES) | Activity [1] [µM] | Activity (JB6) | Activity [2] [µM] | IC50 (KB) [µM] | IC50 [3] [µM] |
| --- | --- | --- | --- | --- | --- |
| COc1cc([C@H]2c3cc4c(cc3C[C@H]3COC(=O)[C@H]32)OCO4)cc(OC)c1OC [ISOPICRODEOXYPODOPHYLLOTOXIN] | 0.18 | Active | 0.55 |  |  |
| CC1=C(/C=C/C(C)=C/C=C/C(C)=C\C(=O)O)C(C)(C)CCC1 [ISOTRETINOIN] | 0.021 |  | 0.6 |  |  |
| C=C[C@]1(C)C=C2C(=O)C[C@@H]3[C@](C)(CCC[C@@]3(C)C(=O)O)[C@H]2CC1 | 11.7 |  | 0.5 | > 60 | > 60 |
| COc1cc([C@@H]2c3cc4c(cc3C[C@H]3COC(=O)[C@@H]32)OCO4)cc(OC)c1OC [DESOXYPODOPHYLLOTOXIN] | 0.004 | Active | < 0.08 |  |  |
| C=C[C@@]1(C)CCC2=C(C1)C(=O)C[C@H]1[C@](C)(C(=O)O)CCC[C@]21C | 12.6 |  | 0.98 | > 60 | > 60 |
| COc1cc(C[C@H]2C(=O)OC[C@@H]2Cc2ccc3c(c2)OCO3)cc(OC)c1OC | 3.75 | Active | 6.5 |  |  |
| C=C[C@@]1(C)CC[C@H]2C(=CC[C@@H]3[C@]2(C)CCC[C@@]3(C)C(=O)O)C1 [ISOPIMARIC ACID] | 13.2 |  | 0.86 | > 60 | > 60 |
